Reference: paper PMC10683023, “Targeting Glial Cells by Organic Anion-Transporting Polypeptide 1C1 (OATP1C1)-Utilizing L-Thyroxine-Derived Prodrugs” (Journal of Medicinal Chemistry, 2023)

Experiments:
[1] = Enzymatic bioconversion in human plasma; assay type: in vitro ADME; settings: after 5 h incubation, 37 °C, mean ± SD, n = 3
Procedure: (§1) The rates of bioactivation of the prodrugs 1–8 in mouse and human liver S9 fractions, as well as in mouse primary astrocyte–microglia homogenate, were determined at +37 °C. The incubation mixtures were prepared by mixing liver S9 subcellular fraction or brain cell homogenate (final protein concentration 1.0 mg/mL) with isotonic Tris–HCl buffer (pH 7.4) and 10 mM prodrug stock solution in DMSO (the initial concentration of prodrugs was 100 μM and the DMSO concentration was […]). The mixture was incubated for 5 h, and the samples ([…]) were withdrawn at appropriate intervals. The enzymatic reaction was terminated by the addition of ice-cold acetonitrile ([…]), and the samples were centrifuged for 5 min at 12 000 rpm at room temperature and kept on ice until the supernatants were analyzed by the HPLC method described below. In blank reactions, the S9 fractions were replaced with the same volume of buffer. The pseudo-first-order half-lives (t1/2) for the rates of bioconversion of the prodrugs were calculated from the slope of the linear portion of the plotted logarithm of the remaining prodrug concentration versus time. The rates of bioactivation of prodrugs 1–8 in human plasma and mouse serum were determined at 37 °C as above by adding 10 mM stock solution of the prodrug to plasma/serum in a ratio of 1:10 and analyzed similarly to the samples from S9 fractions.
(§2) The amount of prodrug 1–8 was determined by the HPLC system, which consisted of an Agilent 1100 binary pump (Agilent Technologies Inc., Wilmington, DE), an 1100 micro vacuum degasser, an HP 1050 Autosampler, and an HP 1050 variable wavelength detector, operated at 230–240 nm. The chromatographic separations were achieved on an Agilent Zorbax SB-C18 analytical column (4.4 mm × 150 mm, 5 μm) (Agilent Technologies Inc., Wilmington, DE) by using isocratic elution of water containing 0.1% formic acid (pH ca. 3.0) and acetonitrile containing 0.1% formic acid with ratios of 50:50, 30:70, 40:60, 50:50, 50:50, 40:60, 40:60, and 30:70 (v/v), respectively, for prodrug 1–8. […] The lower limit of quantification for prodrugs 1–8 was 0.20 μM. These HPLC methods were also accurate, precise, and selective over the range of 0.5–20 μM.

[2] = system: human U-87MG glioma cells; experiment: Concentration-dependent cellular uptake into human U-87MG glioma cells; assay type: cell-based; settings: 5–400 μM, 30 min, 37 °C
Procedure: U-87MG (ATCC, HTB-14, unknown origin) was purchased from Lonza (Basel, Switzerland). The cells were cultured in standard conditions (37 °C, 5% CO2) using Dulbecco’s modified Eagle’s medium (DMEM) supplemented with L-glutamine (2.0 mM), heat-inactivated fetal bovine serum (FBS) (10%), penicillin (50 U/mL), and streptomycin (50 μg/mL). U-87MG cells (passages 8–25) were seeded at a density of 1 × 10^5 cells/well onto 24-well plates and used for the uptake experiments 1 day after seeding. All of the studies were carried out as three biological replicates from the same cell passage.
(§3) After removal of the culture medium, U-87MG human glioma cells and mouse primary astrocytes were carefully washed with prewarmed Hank’s balanced salt solution (HBSS) containing 125.0 mM NaCl (or choline chloride in Na^+ free conditions), 4.8 mM KCl, 1.2 mM MgSO4, 1.2 mM KH2PO4, 1.3 mM CaCl2, 5.6 mM glucose, and 25.0 mM 4-(2-hydroxyethyl)piperazine-1-ethanesulfonic acid (HEPES) with the pH adjusted to either 7.4 or pH 8.5 with 1 M NaOH (or KOH in sodium-free conditions). In the experiments at lower pH (4.5–6.5), 25.0 mM HEPES was replaced by 2-(N-morpholino) ethanesulfonic acid (MES), and the pH was adjusted to 4.5, 5.5, and 6.5 by 1.0 M NaOH. Preincubation was done with 500 μL of prewarmed HBSS at 37 °C for 10 min before adding the substrate for the uptake experiments. The functionality of OATP1C1 in human glioma U-87MG cells was studied with a known substrate (L-thyroxine, T4) and of oatp1a4, 1a5, and 1a6 in mouse primary astrocytes with [6,7-^3H(N)]-estrone-3-sulfate (ES) by incubating the uptake solution (250 μL in HBSS) consisting of 5–400 μM of the substrate at 37 °C for 30 min. After incubation, the uptake was stopped by adding 500 μL of ice-cold HBSS, and the cells were washed two times with ice-cold HBSS (2 × 500 μL). The cells were then lysed with 500 μL of 0.1 M NaOH (60 min), the lysate was neutralized, and the protein was precipitated with acidic acetonitrile (ACN with 4.8% formic acid). The supernatants were analyzed by the high-performance liquid chromatography (HPLC) methods described below (T4) or by using a liquid scintillation counter (MicroBeta2 counter, PerkinElmer, Waltham, MA) (ES). The concentrations of T4 and ES were calculated from the spiked standard curve and normalized with the protein concentrations. The protein concentrations on each plate were determined as a mean of three samples by Bio-Rad Protein Assay, based on the Bradford dye-binding method, using bovine serum albumin (BSA) as a standard protein and measuring the absorbance (595 nm) by a multiplate reader (EnVision, PerkinElmer, Inc., Waltham, MA). The OATP-mediated uptake was confirmed by changing the pH of the uptake buffer in the absence of sodium ions, and in the case of OATP1C1 in human U-87MG cells, the uptake of T4 (100 μM) was studied in the presence of competing OATP1C1-ligands, diclofenac and flufenamic acid (100 μM), and in the case of oatp1a4/1a5/1a6 in mouse primary astrocytes, the uptake of ES (100 μM) was studied in the presence of competing OATO1A2-ligand, naringin (100 μM).
Cellular uptake of prodrugs 1–8 was studied as described for L-thyroxine above by adding compounds at a concentration of 5–400 μM in prewarmed HBSS buffer (250 μL) on the cell layer and incubating at 37 °C for 30 min (uptake was linear with all compounds up to 30 min). Subsequently, the cells were washed three times with ice-cold HBSS and lysed with 500 μL of 0.1 M NaOH (60 min). The lysate was neutralized; the proteins were precipitated with acidic ACN (containing 4.8% formic acid), and the supernatants were analyzed by the (HPLC) methods described below. The concentrations of each prodrug normalized to protein concentration were calculated from the standard curve prepared by spiking known concentrations of compounds into ACN-precipitated cell lysate. […]

[3] = Enzymatic bioconversion in mouse serum; assay type: in vitro ADME; settings: after 5 h incubation, 37 °C, mean ± SD, n = 3
Procedure: as §1, §2

[4] = Enzymatic bioconversion in human liver S9 fraction; assay type: in vitro ADME; settings: after 5 h incubation, 100 μM prodrug, 37 °C, mean ± SD, n = 3
Procedure: as §1, §2

[5] = Enzymatic bioconversion in mouse primary astrocyte–microglia homogenate; assay type: in vitro ADME; settings: after 5 h incubation, 100 μM prodrug, 37 °C, mean ± SD, n = 3
Procedure: as §1, §2

[6] = Enzymatic bioconversion in mouse liver S9 fraction; assay type: in vitro ADME; settings: after 5 h incubation, 100 μM prodrug, 37 °C, mean ± SD, n = 3
Procedure: as §1, §2

mouse primary astrocytes = experiment: Concentration-dependent cellular uptake into mouse primary astrocytes; assay type: cell-based; settings: 5–400 μM
Procedure: The mouse primary astrocytes were isolated from neonatal pups (P0-2) of wild-type mice (C57BL/6JOlaHsd) as previously described, in compliance with the European Commission Directive 2010/63/EU and approved by the Institutional Animal Care and Use Committee of the University of Eastern Finland (Animal Usage Plan numbers: EKS-006-2019).[37] Neonatal pups were decapitated, and their brains were collected in an ice-cold HBSS buffer. After tissue dissociation and washing, cells were plated on poly-L-lysine-coated flasks and cultured in DMEM supplemented with FBS, L-glutamine, and penicillin/streptomycin (50 μg/mL) for 24 h. Debris and dead cells were removed by DPBS rinsing. After 7 days, microglial cells were removed, and the remaining astrocytic monolayer was collected by trypsinization using 0.05% trypsin-ethylenediaminetetraacetic acid (EDTA) (Gibco), pelleted, and stored at −80 °C for subsequent analysis. For the cell uptake experiments, the astrocytes were seeded on 24-well plates with a density of 10^4 cells/well 3 days before the experiments.
as §3
Cellular uptake of prodrugs 1–8 was studied as described for L-thyroxine above by adding compounds at a concentration of 5–400 μM in prewarmed HBSS buffer (250 μL) on the cell layer and incubating at 37 °C for 30 min (uptake was linear with all compounds up to 30 min). Subsequently, the cells were washed three times with ice-cold HBSS and lysed with 500 μL of 0.1 M NaOH (60 min). […]

SMILES | Enzymatic stability, remaining percentage, human plasma [1] [%] | Km [2] [µM] | Km ([2]; listed as PD1) [µM] | Enzymatic stability, remaining percentage, mouse serum [3] [%] | Enzymatic stability, remaining percentage, human liver S9 [4] [%] | Enzymatic stability, remaining percentage, mouse brain cell homogenate [5] [%] | Enzymatic stability, remaining percentage, mouse liver S9 [6] [%] | Km (mouse primary astrocytes; 30 min, 37 °C) [µM] | Vmax, ES uptake into mouse primary astrocytes (mouse primary astrocytes; Figure 2B) [pmol/min/mg] | Vmax, cellular uptake, astrocytes (mouse primary astrocytes; 30 min, 37 °C) [nmol/min/mg] | Vmax, cellular uptake, U-87MG [2] [nmol/min/mg]
CC(C(=O)Oc1c(I)cc(C[C@H](N)C(=O)O)cc1I)c1cccc(C(=O)c2ccccc2)c1 (mixture of isomers) [Prodrug 1, (2S)-2-Amino-3-(4-((2-(3-benzoylphenyl)propanoyl)oxy)-3,5-diiodophenyl)propanoic acid] | 92.01 ± 5.02 | 174 | ~174 | 94.32 ± 1.27 | 78.13 ± 2.17 | 85.76 ± 2.74 | 74.30 ± 7.50 | – | – | – | –
C[C@]12CC[C@@H]3c4ccc(OS(=O)(=O)O)cc4CC[C@H]3[C@@H]1CCC2=O [ES, [6,7-^3H(N)]-estrone-3-sulfate, reference compound] | – | – | – | – | – | – | – | 703 ± 227 | 0.22 ± 0.05 | – | –
N[C@@H](Cc1cc(I)c(Oc2cc(I)c(O)c(I)c2)c(I)c1)C(=O)O [L-Thyroxine T4, L-thyroxine] | – | 111 ± 32 | – | – | – | – | – | 1250 ± 230 | – | 9.7 ± 6.1 | 8.86 ± 1.33
